Measured values taken from article PMC12514245, “Impaired migration and lung invasion of human melanoma by a novel small molecule targeting the transmembrane domain of death receptor p75^NTR” (EMBO Molecular Medicine, 2025).
Where “and” joins values, the source holds several entries; their conditions need not be identical. Equal entries are not always repeated. Entries after “also recorded” stand apart in the source; their conditions may differ.

Assays:
[1] = target: T1, p75^NTR TMD (Homo sapiens, UniProt P08138); assay: AraTM assay, wild-type p75NTR TMD (GFP/OD630); assay type: cell-based; details: structure-activity comparison
T1 sequence (P08138 250-275 limits assumed): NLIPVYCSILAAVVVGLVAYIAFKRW

[2] = system: AS19 E. coli; assay: Bacterial toxicity (OD630) in the AraTM assay; assay type: cell-based; details: compared with Div17E5
[3] = system: A875 NT cells; assay: Wound healing cell motility assay, A875 NT; assay type: cell-based, human; details: for Wound area (Fold), Mean / Wound area (Fold), individual replicates: 10uM
Procedure: For wound healing assay, cells were grown until confluency and subjected to a wound across the cell mono-layer. Cells were then incubated with serum-free media either with DMSO or a small molecule (with or without 5 µM Q_VD_poH) and imaged at specific time-points. Cell migration is reflected as fold change in wound area over time.

With COc1cccc(-c2cncc(Nc3ccc([N+](=O)[O-])cc3)n2)c1 [Np75-3A02] the “activity in the AraTM assay” value [1] was “MS_18 more potent than Np75-3A01, -3A02”.

With Cc1cccc(-c2cncc(Nc3ccc([N+](=O)[O-])cc3)n2)c1 [Np75-3A20] the “activity in the AraTM assay” value [1] was “Np75-3A21 better than -3A19 and -3A20”.

CN(C)c1cccc(-c2cncc(Nc3ccc(Br)c(Cl)c3Cl)n2)c1 [MS_63] was tested, and the “bacterial toxicity, as assessed by OD630” value [2] was “somewhat lower bacterial toxicity”, the “wound healing assay, comparison of Div17E5, MS_18 and MS_63” value ([3]; 10 µM) was “lower potency” and the “Wound area (Fold), Mean” value ([3]; 0 hours) was 1 Fold. For the same molecule, the “Wound area (Fold), individual replicates” value ([3]; 0 hours) was 1.000 Fold, the “Wound area (Fold), Mean” value ([3]; 3 hours) was 0.912 Fold and the “Wound area (Fold), individual replicates” value ([3]; 3 hours) was 0.916 Fold and 0.908 Fold. For the same molecule, the “Wound area (Fold), Mean” value ([3]; 6 hours) was 0.874 Fold, the “Wound area (Fold), individual replicates” value ([3]; 6 hours) was 0.869 Fold and 0.879 Fold and the “Wound area (Fold), Mean” value ([3]; 9 hours) was 0.827 Fold. For the same molecule, the “Wound area (Fold), individual replicates” value ([3]; 9 hours) was 0.786 Fold and 0.869 Fold, the “Wound area (Fold), Mean” value ([3]; 12 hours) was 0.792 Fold and the “Wound area (Fold), individual replicates” value ([3]; 12 hours) was 0.755 Fold and 0.828 Fold. The “Wound area (Fold), Mean” value ([3]; 15 hours) was 0.762 Fold, the “Wound area (Fold), individual replicates” value ([3]; 15 hours) was 0.728 Fold and 0.796 Fold and the “Wound area (Fold), Mean” value ([3]; 18 hours) was 0.73 Fold. The “Wound area (Fold), individual replicates” value ([3]; 18 hours) was 0.704 Fold and 0.756 Fold, the “Wound area (Fold), Mean” value ([3]; 21 hours) was 0.71 Fold and the “Wound area (Fold), individual replicates” value ([3]; 21 hours) was 0.683 Fold and 0.737 Fold. The “Wound area (Fold), Mean” value ([3]; 24 hours) was 0.697 Fold and the “Wound area (Fold), individual replicates” value ([3]; 24 hours) was 0.666 Fold and 0.729 Fold.

For COc1ccc(-c2cncc(Nc3ccc(Br)c(Cl)c3)n2)cc1 [Np75-3B03], the “activity in the AraTM assay” value [1] was “best compound in this series; also recorded: less potent than MS_18”.

For Cc1ccccc1-c1cncc(Nc2ccc([N+](=O)[O-])cc2)n1 [Np75-3A19], the “activity in the AraTM assay” value [1] was “Np75-3A21 better than -3A19 and -3A20”.
